Measurements from patent publication US11890287B2, “Therapeutic compounds and compositions for treating social disorders and substance use disorders” (Kinoxis Therapeutics Pty Ltd, priority 2015, dated 2024).
Entries after “also recorded” stand apart in the source; their conditions may differ.

Assays:
male Albino Wistar rats = assay: Social preference test (caged conspecific vs toy rat); format: in vivo; conditions: 5 mg/kg IP
rhesus monkeys = assay: Intravenous cocaine self-administration; format: in vivo, rhesus monkey; conditions: 3 mg/kg orally
[1] = tested on: Fos-positive cells in brain regions of interest; assay: Fos immunohistochemistry in rat brain; format: in vivo, male Wistar rats
Protocol: Fos immunohistochemistry was used to identify the neural “signature” of SOC-1 (5 mg/kg) in rat brain relative to injections of peripheral oxytocin (OT) (1 mg/kg). SOC-1 produces a similar overall pattern of neural activation and behavioural effects as OT. However, the effects are much larger and additional areas are activated by SOC-1 that are implicated in the regulation of social behaviour (e.g. lateral septum, medial preoptic area and supraoptic nucleus). SOC-1 produces powerful activation of OT-containing neurons in both the supraoptic (FIG. 6: (A)=vehicle; (B)=oxytocin; and (C)=SOC-1) and paraventricular nucleus of the hypothalamus.

BALB/C mice = assay: Social preference test, BALB/C mouse model of autism spectrum disorders; format: in vivo; conditions: 5 mg/kg IP
From the text: BALB/C mice have autistic-like behaviours (including reduced interest in social stimuli) compared to standard C57BL/6 mice. In a social preference test, BALB/C mice show no preference for interacting with a social stimulus (a novel mouse) over an object stimulus (a novel object), whereas C57BL/6 mice show a robust preference.

male Hooded Wistar rats = assay: Social interaction test; format: in vivo, rat
Protocol: The primary phenotypic effect was a massive increase in a behaviour called “adjacent lying” where unfamiliar rats come together in passive social contact for prolonged periods. […] (n=6-8 pairs per condition, 20 minute test). Remarkably the effects of SOC-1 outlive its acute administration and a prolonged upregulation of social behaviour (measured as time spent in close proximity) in rats given only 3 doses of SOC-1, 2 weeks previously, was observed (FIG. 1, image (B)).

V1B = V1B (Homo sapiens, UniProt P47901); assay: Orthosteric binding, AVP receptors
Wistar rats = assay: Biotelemetry of body temperature and heart rate; format: in vivo, rat
Protocol: FIG. 7—The monitored body temperatures of Wistar rats administered vehicle, SOC-1 (5 mg/kg), or SOC-1 and the V1A receptor antagonist SR49059 (10 mg/kg).
FIG. 8—The monitored heart rates for Wistar rats administered vehicle, SOC-1 (5 mg/kg), or SOC-1 and the V1A receptor antagonist SR49059 (10 mg/kg).
However, the rats were not ataxic or comatose, they were simply in a relaxed quiescent state. […] Effects on body temperature and other behaviours are not blocked by pre-treatment with the vasopressin V1A receptor antagonist SR49059 (10 mg/kg). […] The data in these two studies was gathered with DataSciences International biotelemetry system.

human OT receptor = human OT receptor (Homo sapiens, UniProt P30559); assay: Orthosteric binding against [3H]OT
[2] = tested on: SH-SY5Y neuroblastoma cells; assay: Cell viability (Cell Titer Blue); format: cell-based; conditions: 48 hours; for Viability: mean ± SD
Protocol: No apparent cytotoxicity of SOC-1 has been seen in vitro or toxicity in vivo. In a test, SH-SY5Y neuroblastoma cells and HEK-293 cells (4×10^4 cells per well) were exposed to OT or SOC-1 (0.01-10 μM) for 48 hours, with daily media changes. Viability of cells was assessed after a 4 hour exposure to Cell Titer Blue (Promega).

human V1a receptor = human V1a receptor (Homo sapiens, UniProt P37288); assay: Orthosteric binding against [3H]AVP
V1aR = molecular target: T1, V1aR (Homo sapiens, UniProt P37288); assay: IP1 signalling on V1aR HEK cells; format: cell-based
T1 construct: expressed in transfected cells; host or cells: HEK cells
T1 sequence (P37288 whole entry): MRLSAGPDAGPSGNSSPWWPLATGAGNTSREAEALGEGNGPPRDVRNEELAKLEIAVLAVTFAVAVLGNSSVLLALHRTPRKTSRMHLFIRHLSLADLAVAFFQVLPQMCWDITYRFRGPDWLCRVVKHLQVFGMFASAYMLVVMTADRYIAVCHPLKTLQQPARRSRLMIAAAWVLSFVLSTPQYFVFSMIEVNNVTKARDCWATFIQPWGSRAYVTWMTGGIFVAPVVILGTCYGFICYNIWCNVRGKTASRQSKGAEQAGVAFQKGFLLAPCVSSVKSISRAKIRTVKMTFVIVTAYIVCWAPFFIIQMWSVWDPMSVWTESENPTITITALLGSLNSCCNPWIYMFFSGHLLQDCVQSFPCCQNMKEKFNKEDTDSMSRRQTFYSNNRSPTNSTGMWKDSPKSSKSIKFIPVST

human V1a receptor, sequence (P37288 whole entry): as above
human OT receptor, sequence (P30559 whole entry): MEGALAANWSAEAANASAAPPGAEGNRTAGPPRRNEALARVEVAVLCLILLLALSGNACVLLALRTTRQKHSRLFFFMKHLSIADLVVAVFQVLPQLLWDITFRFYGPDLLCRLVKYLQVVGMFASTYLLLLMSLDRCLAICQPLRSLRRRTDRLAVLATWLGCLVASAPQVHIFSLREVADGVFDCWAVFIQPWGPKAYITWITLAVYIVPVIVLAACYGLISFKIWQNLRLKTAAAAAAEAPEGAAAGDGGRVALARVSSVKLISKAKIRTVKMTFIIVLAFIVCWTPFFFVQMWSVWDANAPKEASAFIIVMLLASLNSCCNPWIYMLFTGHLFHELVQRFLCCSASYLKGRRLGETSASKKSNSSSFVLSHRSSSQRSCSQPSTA
V1B, sequence (P47901 whole entry): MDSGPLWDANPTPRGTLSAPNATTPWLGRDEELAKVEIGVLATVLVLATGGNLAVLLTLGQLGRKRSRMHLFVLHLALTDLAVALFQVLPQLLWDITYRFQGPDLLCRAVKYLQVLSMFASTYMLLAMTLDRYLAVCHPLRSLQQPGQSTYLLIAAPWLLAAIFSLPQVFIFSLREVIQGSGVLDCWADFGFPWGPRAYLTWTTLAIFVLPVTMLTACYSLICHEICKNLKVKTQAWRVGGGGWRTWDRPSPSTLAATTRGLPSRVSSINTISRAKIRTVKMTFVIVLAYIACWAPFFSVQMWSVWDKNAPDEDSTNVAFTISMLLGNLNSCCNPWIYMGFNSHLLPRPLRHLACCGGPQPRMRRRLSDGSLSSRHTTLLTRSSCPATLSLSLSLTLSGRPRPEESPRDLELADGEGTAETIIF

Compound: Cl.Cn1ncc2c1Nc1ccccc1NC2 [SOC-1]
- preference for the live rat over a toy rat (male Albino Wistar rats): enhanced rats natural preference for an unfamiliar live rat; also recorded: significantly elevated preference for the live rat
- food consumption (rhesus monkeys): without affecting food consumption
- intravenous cocaine self-administration relative to baseline levels (rhesus monkeys): nearly halved
- Fos expression in the oxytocin-positive cells in the supraoptic nucleus of the hypothalamus (SON) ([1]; 5 mg/kg): strongly activates Fos expression
- Mean number of Fos-positive cells, BNST (dorsolateral division) ([1]; OT 1 mg/kg, SOC-1 5 mg/kg): 10.25
- Mean number of Fos-positive cells, BNST (middle anterior part)) ([1]; OT 1 mg/kg, SOC-1 5 mg/kg): 7
- Mean number of Fos-positive cells, Central nucleus of the amygdala ([1]; OT 1 mg/kg, SOC-1 5 mg/kg): 14.33
- Mean number of Fos-positive cells, Lateral Parabrachial nucleus ([1]; OT 1 mg/kg, SOC-1 5 mg/kg): 12.91
- Mean number of Fos-positive cells, Lateral septum (ventral) ([1]; OT 1 mg/kg, SOC-1 5 mg/kg): 34.17
- Mean number of Fos-positive cells, Locus Ceruleus ([1]; OT 1 mg/kg, SOC-1 5 mg/kg): 8.08
- Mean number of Fos-positive cells, Medial preoptic area ([1]; OT 1 mg/kg, SOC-1 5 mg/kg): 10.30
- Mean number of Fos-positive cells, Median preoptic nucleus ([1]; OT 1 mg/kg, SOC-1 5 mg/kg): 7.08
- Mean number of Fos-positive cells, Nucleus of Solitary Tract ([1]; OT 1 mg/kg, SOC-1 5 mg/kg): 17.58
- Mean number of Fos-positive cells, PAG (ventrolateral) ([1]; OT 1 mg/kg, SOC-1 5 mg/kg): 8.58
- Mean number of Fos-positive cells, Paraventircular nucleus ([1]; OT 1 mg/kg, SOC-1 5 mg/kg): 47.18
- Mean number of Fos-positive cells, Supraoptic nucleus ([1]; OT 1 mg/kg, SOC-1 5 mg/kg): 15.42
- Mean percent of OT cells that were Fos positive, Paraventircular nucleus ([1]; OT 1 mg/kg, SOC-1 5 mg/kg): 23.41%
- Mean percent of OT cells that were Fos positive, Supraoptic nucleus ([1]; OT 1 mg/kg, SOC-1 5 mg/kg): 32.59%
- time spent investigating the object stimulus (a novel object) (BALB/C mice): significantly increased the amount of time the BALB/C mice spent investigating the object stimulus
- time spent investigating the social stimulus (a novel mouse) (BALB/C mice): significantly increased the amount of time BALB/C mice spent investigating the social stimulus
- adjacent lying in the social interaction test (male Hooded Wistar rats; 5 and 10 mg/kg IP, 20 minute test): massive increase in adjacent lying
- pro-social effects compared with AVP, MDMA and WAY 267,464 (male Hooded Wistar rats; most efficacious doses, adjacent lying): most powerful pro-social effects by a considerable margin
- proximity towards a novel conspecific (time spent within 1 body length) (male Hooded Wistar rats; two weeks following treatment, 3 doses in total across 6 days): increased proximity towards a novel conspecific relative to controls
- affinity for the orthosteric binding site of V1B (V1B): Nor does SOC-1 show any affinity
- body temperature (Wistar rats; 5 mg/kg): modest hypothermia
- heart rate (Wistar rats; 5 mg/kg): no effect
- hypothermia at higher ambient temperatures (Wistar rats; 30° C.): abolished
- IC50 (human OT receptor): > 10 µM
- Viability ([2]; 0.01 μM): 98.9 ± 2.7 percentage of vehicle viability
- Viability ([2]; 0.1 μM): 99.1 ± 2.9 percentage of vehicle viability
- Viability ([2]; 1 μM): 97.7 ± 1.6 percentage of vehicle viability
- Viability ([2]; 10 μM): 97.0 ± 2.5 percentage of vehicle viability
- differences in viability ([2]; 0.01-10 μM): No significant differences in viability
- IC50 (human V1a receptor): > 10 µM
- agonist or positive allosteric modulator activity at V1aR (V1aR): not an agonist or positive allosteric modulator of V1aRs
- antagonist activity at V1aR (V1aR): weak antagonist activity
